# From patent US20070299139A1, “Lyophilisate Comprising N-Diaminomethylene-2-Methyl-4,5-Di(Methylsulfonyl)Benzamide” (priority 2004, published 2007)
# Assay: Stability of the active compound in aqueous solution
# Assay type: physicochemical
# Conditions: hydrolyses
# Description: The development of this active compound in intensive medicine requires that it is available in parenterally administrable form, best as aqueous solution.
compound,measurement,value
"Cc1cc(S(C)(=O)=O)c(S(C)(=O)=O)cc1C(=O)NC(=N)N [N-diaminomethylene-2-methyl-4,5-di(methylsulfonyl)benzamide]",stability in aqueous solution,not stable in aqueous solution
